Results reported in patent US4025508A, “6-(Trifluoromethyl)-benzothiadiazines” (Serdex - Societe d'Etudes, de Recherches, de Diffusion et …, priority 1973, dated 1977).

Legend:
[1] = Acute toxicity (LD50 /24 hours); settings: in vivo, po
glycemia [2] = assay: Hyperglycemia-producing activity, tests in dogs (glycemia); format: in vivo, dog; settings: p.o.
[3] = system: cardiovascular parameters; assay: Cardiovascular parameters (blood pressures, cardiac rhythm) in anesthetized dogs; format: in vivo, dog; settings: 100 mg/kg, p.o.
glycemia [4] = assay: Hyperglycemia-producing activity, tests in rats (glycemia); format: in vivo, rat (adult white rats)
Procedure: The following test methods were used to determine the hyperglycemia-producing activity:
The experiments were conducted in adult white rats weighing 200 g+ 10 g.
The products were administered as a suspension in gummy julep, by stomach tube, at dosages of 10, 20 and 100 mg/kg, p.o.
At each dosage level, and in each case, lots of 10 test animals (5 male and 5 female) and of 10 reference animals (5 male and 5 female, administered only the gummy Julep) were used.
Blood samples were taken by cardiac puncture, at times 15, 60 minutes and 2, 4 and 24 hours after administration of the products, and the glycemia was determined.

O=S1(=O)NC=Nc2cc(C(F)(F)F)c(F)cc21 [Example 1, 6-trifluoromethyl-7-fluoro-2H-1,2,4-benzothiadiazine-1,1-dioxide]
LD50 at 24 h [1]: 3230 mg/kg | increase of the glycemia (glycemia [2]; 100 mg/kg): about 25% | action on the glycemia (glycemia [2]; 10 or 20 mg/kg): no significant action | action on the cardiac rhythm [3]: nor on the cardiac rhythm | action on the diastolic pressure [3]: no significant action | action on the differential pressure [3]: no significant action | action on the mean pressure [3]: no significant action | action on the systolic pressure [3]: no significant action | glycemia after administration (glycemia [4]; 100 mg/kg p.o., twenty-four hours after administration, from 0.839± 0.042 g/l): 1.212 ± 0.041 g/L | action on the glycemia (glycemia [4]; 10 or 20 mg/kg, p.o.): no significant action
